ChEMBL document CHEMBL1155501, “Studies on two types of PTP1B inhibitors for the treatment of type 2 diabetes: Hologram QSAR for OBA and BBB analogues” (Bioorg Med Chem Lett, 2010)

Biological target: T1, Tyrosine-protein phosphatase non-receptor type 1 (Homo sapiens, UniProt P18031)
T1 sequence (P18031 whole entry): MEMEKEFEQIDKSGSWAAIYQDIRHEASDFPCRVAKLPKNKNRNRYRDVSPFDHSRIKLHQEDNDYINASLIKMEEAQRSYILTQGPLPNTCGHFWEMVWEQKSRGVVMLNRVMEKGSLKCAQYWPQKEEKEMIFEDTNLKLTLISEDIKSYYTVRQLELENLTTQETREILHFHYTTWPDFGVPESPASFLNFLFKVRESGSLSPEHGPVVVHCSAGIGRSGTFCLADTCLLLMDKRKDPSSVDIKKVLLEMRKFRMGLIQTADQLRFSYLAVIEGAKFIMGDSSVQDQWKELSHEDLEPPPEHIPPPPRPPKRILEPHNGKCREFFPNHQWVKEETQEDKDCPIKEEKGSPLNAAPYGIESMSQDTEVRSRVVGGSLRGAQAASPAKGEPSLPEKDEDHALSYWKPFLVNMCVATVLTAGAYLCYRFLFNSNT
Assay: Binding affinity to human recombinant PTP1B

IC50 [µM]	Ki [µM]	Structure (SMILES)
0.447		Oc1c(Br)cc(-c2ccc(-c3c(Cc4ccccc4)sc4ccccc34)cc2)cc1Br
0.692		CCCCc1sc2ccccc2c1-c1ccc(-c2ccc(O)cc2)cc1
0.457		O=C(O)/C=C/C(=O)Nc1cc(-c2ccc(-c3c(Cc4ccccc4)oc4ccccc34)cc2)ccc1O
	1260	Cc1cccc(C(=O)O)c1NC(=O)C(=O)O
2.19		CCCCc1sc2ccccc2c1-c1ccc(-c2ccc(OCC(=O)O)cc2)cc1
	6.03	O=C(O)C(=O)Nc1sc2c(c1C(=O)O)CCS(=O)(=O)C2
0.12		O=C(O)[C@H](Oc1ccc(-c2ccc(-c3c(Cc4ccc(O)cc4O)sc4ccccc34)cc2)cc1)c1ccccc1
	6.03	Nc1cccc(-c2cc(NC(=O)C(=O)O)c(C(=O)O)s2)c1
